Consider 60 molecules from PubChem BioAssay AID1645865 (Buhrlage Lab, Dana-Farber Cancer Institute and Novartis …, 2021).

Molecules are shown by their SMILES. Activity calls are given as the source filed them.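 Rule for the calls: active = maximal inhibition of the USP30 enzyme reaching 30% or more across the dose series; inactive = the rest.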 Where only a bound is given, the exact number is not on record here.

The target of the test is Ubiquitin carboxyl-terminal hydrolase 30 (Homo sapiens) (UniProt Q70CQ3). As to the kind of experiment: ubiquitin-specific protease 30 DUB inhibitors, concentration-effect, biochemical, validation of primary actives (AID 1645865). The note with it: purified USP30, Ub-rhodamine cleavage, fluorescence, 2 h.
Chain of Ubiquitin carboxyl-terminal hydrolase 30 (Homo sapiens) (Q70CQ3 whole entry, looked up): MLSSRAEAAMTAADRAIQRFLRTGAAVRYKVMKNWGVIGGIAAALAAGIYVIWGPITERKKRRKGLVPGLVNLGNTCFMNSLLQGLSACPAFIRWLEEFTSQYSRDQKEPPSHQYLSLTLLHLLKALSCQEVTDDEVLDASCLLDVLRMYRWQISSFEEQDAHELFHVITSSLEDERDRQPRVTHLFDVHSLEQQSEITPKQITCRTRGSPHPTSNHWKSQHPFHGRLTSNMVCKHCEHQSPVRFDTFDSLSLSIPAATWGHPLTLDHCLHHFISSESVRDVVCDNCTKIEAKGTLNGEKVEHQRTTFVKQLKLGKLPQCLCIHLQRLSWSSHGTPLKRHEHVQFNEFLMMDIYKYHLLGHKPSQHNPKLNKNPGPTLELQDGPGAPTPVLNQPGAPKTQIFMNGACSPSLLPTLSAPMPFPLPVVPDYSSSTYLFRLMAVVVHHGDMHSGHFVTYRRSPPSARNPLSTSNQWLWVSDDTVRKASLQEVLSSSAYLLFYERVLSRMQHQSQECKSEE

`Cc1ccc(NC(=O)c2ccc3nn(CC(=O)Nc4ccc(F)cc4F)c(=O)n3c2)cc1`: the IC50 was 2.43 µM.
In the case of `CCN(C(=O)c1cc2c(s1)-c1ccccc1OC2)c1ccccc1F`, the IC50 is > 50 µM (inactive).
Under `CCc1ccc2[nH]c(=O)c(CN(CCc3ccc(OC)c(OC)c3)C(=O)Nc3ccccc3)cc2c1` stands > 50 µM (inactive); under `COc1ccc(CNC(=O)CCc2nnc3n(Cc4ccccc4Cl)c(=O)c4ccccc4n23)cc1`, 2.65 µM; under `CCOc1ccccc1NC(=O)Cn1c(-c2ccc3c(c2)OCO3)cn(-c2ccc(OC)cc2)c1=O`, > 50 µM (inactive).
Under `Cc1ccc(Cn2c(=O)n(CCC(=O)NCCc3ccccc3)c(=O)c3ccccc32)cc1` stands 5.14 µM.
Under `CCc1ccc(NC(=O)Cc2nnc3cc(-c4nc(C)no4)ccn23)cc1` stands 2.37 µM.
Regarding `O=C(COc1cccc(C(=O)NCc2ccccc2)c1)Nc1ccc(Oc2ccccc2)cc1`, the IC50 was > 50 µM (inactive).
Under `COc1ccc(C(=O)Nc2ccc3c(c2)C(=O)N(C)c2ccccc2O3)cc1` stands > 50 µM (inactive); under `CC(C)c1cc(NCc2ccccc2)n2nc(-c3cccnc3)nc2n1`, 19.7 µM.
Under `CCCn1cc(C(=O)N2CCC3(CC2)CC2(CO3)Nc3ccccc3-n3cccc32)c(C)n1` (stereo not given) stands > 50 µM (inactive).
Under `FC(F)(F)c1cccc(CSc2ccc3nnc(-c4ccccn4)n3n2)c1` stands 14.9 µM; under `O=c1c2ccccc2ncn1C1CCN(S(=O)(=O)c2ccccc2F)CC1`, 30.8 µM.
As to `COc1ccc(Cl)cc1N1C(=O)[C@H]2[C@@H](C1=O)[C@]1(C(=O)Nc3c(C)cc(C)cc31)N1CCC[C@@H]21`, the IC50 is > 50 µM (inactive).
For `CCCc1c(C(=O)O)c(O[C@H]2O[C@H](C)[C@@H](OC)[C@H](OC)[C@@H]2OC)cc2cc3c(c(O)c12)C(=O)c1c(O)cc(O[C@@H]2O[C@@H](C)[C@H](O[C@H]4O[C@H](C)[C@@H](OC)[C@H](OC)[C@@H]4O)[C@@H](OC)[C@H]2O)cc1C3=O`, the IC50 is > 50 µM (inactive).
Under `CCC(=O)Nc1cccnc1-c1ccc(C(=O)Nc2cccc(OC)c2)cc1` stands > 50 µM (inactive).
Under `O=S(=O)(O)c1cc2cc3ccccc3cc2[nH]1` stands > 50 µM (inactive); under `COc1ccc(NC(=O)COc2ccc3ccc(=O)oc3c2)cc1`, 34.8 µM.
Turning to `CCCc1nc2c(sc3nc4c(cc32)COC(C)(C)C4)c(=O)n1CC(=O)Nc1ccccc1C`, the 50% inhibitory concentration (IC50) is 39.7 µM.
Under `Cc1cc(C(=O)COC(=O)c2ccc[nH]c2=O)c(C)n1-c1ccc2c(c1)OCO2` stands > 50 µM (inactive).
Under `O=C(c1ccc2ncccc2c1)N1CCC2(C1)Nc1cccnc1NC2=NC1CCCC1` (stereo not given) stands > 50 µM (inactive).
Under `Cc1ccccc1C(=O)OCCN1C(=O)c2cccc3c(N4CCOCC4)ccc(c23)C1=O` stands > 50 µM (inactive); under `Cc1ccc2cccc(OCc3nnc(SCC(=O)c4ccc(Cl)cc4)n3C)c2n1`, 2.63 µM; under `CCOC(=O)c1cnc(C(F)(F)F)nc1Sc1n[nH]c(-c2cccs2)n1`, > 50 µM (inactive).
Consider `CCOC(=O)c1ccc(-n2c(=O)c(C#N)cc3c(=O)n4ccccc4nc32)cc1`, for which the IC50 is > 50 µM (inactive).
Under `COc1cccc(-c2nc3cnccn3c2NCc2ccc3c(c2)OCO3)c1` stands > 50 µM (inactive); under `Cc1ccc2c(c1)c(=O)c(C(=O)c1ccccc1)cn2CC(=O)Nc1ccccc1`, 8.81 µM; under `O=C(Nc1ccc(F)cc1F)NC1CCN(c2ccccc2)C1=O` (stereo not given), 25.8 µM.
Consider `O=c1[nH]c2ccccc2cc1CN(Cc1ccco1)S(=O)(=O)c1ccc(F)cc1`, for which the IC50 is > 50 µM (inactive).
Under `Nc1ccc(NC(=O)c2cc3c(s2)CCC3)cc1[N+](=O)[O-]` stands 16.5 µM; under `CN1CCN(C(=O)c2ccn(-c3ccc4ccc(-c5cnn(C)c5)cn34)n2)CC1`, > 50 µM (inactive); under `CCc1ccc2c(c1)[C@]1(C(=O)N2)[C@@H]2C(=O)N(c3ccc(Cl)cc3Cl)C(=O)[C@@H]2[C@@H]2CCCN21`, > 50 µM (inactive).
Under `COc1cc([C@@H]2c3cc4c(cc3C[C@@H]3COC(=O)[C@H]32)OCO4)cc(OC)c1OC` stands 18.7 µM; under `O=C(Nc1ccc2c(c1)OCCO2)c1ccc(N2CCCC2=O)cc1`, 42.4 µM; under `Cc1cccc(-c2nc3n(CC(=O)Nc4ccc(Cl)cc4)c(C)cc(=O)n3n2)c1`, 0.179 µM.
Under `N#Cc1cccnc1N1CCN(C(=O)Nc2cccc3ccccc23)CC1` stands > 50 µM (inactive); under `Cc1ccc(NC(=O)c2cnc3c(c2)c(=O)n(C)c(=O)n3C)cc1`, 1.71 µM.
As for `CC1CCc2c(sc3nc(CC#N)[nH]c(=O)c23)C1` (stereo not given), the IC50 was > 50 µM (inactive).
Under `CC(C)N1CC2CN(Cc3ccc(Cl)cc3)CCN2Cc2ccccc21` (stereo not given) stands > 50 µM (inactive); under `COc1ccc(-c2cc(C(=O)NC3CCCCCC3)[nH]n2)cc1S(=O)(=O)N(C)C`, 22.9 µM.
With `Cc1nn(-c2cccc(F)c2)c2c1C(C(=O)c1ccc(Cl)s1)CC(=O)N2` (stereo not given), the 50% inhibitory concentration (IC50) was 32.5 µM.
Under `O=C(COc1ccc(Cl)cc1)N1CCc2cc3ccccc3nc21` stands 1.91 µM.
With `COc1cc(C#N)c(NC(=NCc2ccc(F)cc2)SC)cc1OC`, the IC50 was 20.5 µM.
`COc1ccc(-c2cc3nc([C@H](C)NC(=O)Cc4ccccc4C)nn3cn2)cc1`: the IC50 is 1.9 µM.
Under `O=C(NCc1ccc2c(c1)OCO2)c1cc(-c2cc(Cl)ccc2O)n[nH]1` stands 2.82 µM; under `Cc1cc(C(=O)NC2(O)C(=O)c3ccccc3C2=O)n(C)n1`, 20.5 µM.
Under `O=C(COc1ccc(Cl)cc1Cl)Nc1ccc2[nH]c(=O)[nH]c2c1` stands 4.06 µM; under `CCOc1ccc(NC(=O)Cn2cnc(S(=O)(=O)N3CCc4ccccc43)c2)cc1`, 27.4 µM; under `NS(=O)(=O)c1ccc(NC(=O)Cn2cnc3cc([N+](=O)[O-])ccc3c2=O)cc1`, > 50 µM (inactive).
Under `Cc1ccccc1C(=O)Nc1ccc(Cc2ccc(NC(=O)c3ccccc3C)c(O)c2)cc1O` stands > 50 µM (inactive); under `CCCCNC(=O)c1cc2cccnc2n(Cc2ccccc2)c1=O`, > 50 µM (inactive).
Turning to `COc1cccc(-c2cc(C(=O)Nc3cc(C)n(Cc4ccc(Cl)cc4)n3)no2)c1`, the IC50 was 4.38 µM.
Under `CCOc1ccc2c(c1)c(=O)c(C(=O)c1ccccc1)cn2CC(=O)Nc1ccc2c(c1)OCCO2` stands 21.2 µM; under `Cc1ccc(C(=O)c2cn(CC(=O)Nc3ccccc3)c3ccc(C)cc3c2=O)cc1`, 4.45 µM.
Under `O=C(NCc1ccc(F)cc1)C1CCN(c2cnc(N3CCCCC3)nc2)CC1` stands > 50 µM (inactive); under `Cc1cc(C)n(-c2ccc(C(=O)Nc3cccc(S(=O)(=O)N4CCCC4)c3)cc2)n1`, 9.63 µM.
As for `CCOc1ccc2cc3c(nc2c1)OC(=O)N(Cc1ccc(C)o1)C3`, the IC50 was 1.29 µM.
Under `O=C(CCc1nnc2n(Cc3ccc(F)cc3)c(=O)c3ccccc3n12)N1CCN(c2ccccn2)CC1` stands > 50 µM (inactive); under `C=C[C@]1(C)C=C2C(=O)[C@]3(O)OC(=O)[C@@]4(CCCC(C)(C)[C@H]34)[C@@]2(O)CC1`, 27.8 µM; under `CCn1cnc2ccc(C(=O)NC3CC3)cc2c1=O`, > 50 µM (inactive).
